PubChem BioAssay AID1745844 (Carcinogenic Potency Database (CPDB), 2022)

Test system: rodent lifetime carcinogenesis bioassay, tumor incidence TD50
Test: chronic cancer bioassays in animals – CPDB, compiled studies (AID 1745844)
Conditions: rat, strain Fischer 344, in drinking water, study length 60 weeks

Cc1cc(-c2ccc(N)c(C)c2)ccc1N
TD50 (females, site: skin, lesion: basal-cell carcinoma, dosed 60 weeks): 11.6 mg/kg/day | TD50 (females, site: skin, lesion: squamous-cell carcinoma + squamous-cell papilloma, dosed 60 weeks): 3.17 mg/kg/day | TD50 (females, site: skin, lesion: squamous-cell carcinoma, dosed 60 weeks): 5.56 mg/kg/day | TD50 (females, site: skin, lesion: squamous-cell papilloma, dosed 60 weeks): 7.06 mg/kg/day | TD50 (males, site: Zymbal's gland, lesion: adenoma + adenoma, bilateral + carcinoma + carcinoma, bilateral, dosed 58 weeks): 1.12 mg/kg/day | TD50 (males, site: Zymbal's gland, lesion: adenoma + adenoma, bilateral, dosed 58 weeks): 2.38 mg/kg/day | TD50 (males, site: Zymbal's gland, lesion: carcinoma + carcinoma, bilateral, dosed 58 weeks): 1.93 mg/kg/day | TD50 (males, site: adrenal medulla, lesion: pheochromocytoma, benign, dosed 58 weeks): 10.6 mg/kg/day | TD50 (males, site: any site (literature study), lesion: several types, types named in the paper, dosed 58 weeks): 0.334 mg/kg/day | TD50 (males, site: brain, lesion: glioma malignant, focal, mild + malignant glioma + meningioma, malignant, dosed 58 weeks): 26.1 mg/kg/day | TD50 (males, site: cecum + colon + duodenum + ileum + jejunum + large intestine + liver + lung + multiple organs + pharynx + preputial gland + rectum + skin + tongue, lesion: adenomatous polyp + adenocarcinoma + mucinous cystadenocarcinoma + hepatocellular carcinoma + neoplastic nodule + alveolar/bronchi, dosed 58 weeks): 0.346 mg/kg/day | TD50 (males, site: cecum + colon + large intestine + rectum, lesion: adenomatous polyp + adenocarcinoma + mucinous cystadenocarcinoma, dosed 58 weeks): 3.76 mg/kg/day | TD50 (males, site: cecum + colon + rectum, lesion: adenomatous polyp, dosed 58 weeks): 4.87 mg/kg/day | TD50 (males, site: colon + large intestine + rectum, lesion: adenocarcinoma + mucinous cystadenocarcinoma, dosed 58 weeks): 14.4 mg/kg/day | TD50 (males, site: duodenum + ileum + jejunum, lesion: mucinous cystadenocarcinoma + adenocarcinoma + adenomatous polyp, dosed 58 weeks): 6.99 mg/kg/day | TD50 (males, site: duodenum + ileum + jejunum, lesion: mucinous cystadenocarcinoma + adenocarcinoma, dosed 58 weeks): 7.79 mg/kg/day | TD50 (males, site: liver, lesion: hepatocellular adenoma + hepatocellular carcinoma + neoplastic nodule, dosed 58 weeks): 0.898 mg/kg/day | TD50 (males, site: liver, lesion: hepatocellular carcinoma + neoplastic nodule, dosed 58 weeks): 0.898 mg/kg/day | TD50 (males, site: liver, lesion: hepatocellular carcinoma, dosed 58 weeks): 2.76 mg/kg/day | TD50 (males, site: liver, lesion: neoplastic nodule, dosed 58 weeks): 1.12 mg/kg/day | TD50 (males, site: lung, lesion: alveolar/bronchiolar adenoma + alveolar/bronchiolar carcinoma, dosed 58 weeks): 4.93 mg/kg/day | TD50 (males, site: lung, lesion: alveolar/bronchiolar adenoma, dosed 58 weeks): 5.47 mg/kg/day | TD50 (males, site: multiple organs, lesion: mesothelioma, malignant, dosed 58 weeks): 9.45 mg/kg/day | TD50 (males, site: pharynx + tongue, lesion: squamous-cell carcinoma + squamous-cell papilloma, dosed 58 weeks): 8.47 mg/kg/day | TD50 (males, site: pharynx + tongue, lesion: squamous-cell carcinoma, dosed 58 weeks): 26.7 mg/kg/day | TD50 (males, site: preputial gland, lesion: adenoma + carcinoma, dosed 58 weeks): 3.96 mg/kg/day | TD50 (males, site: preputial gland, lesion: adenoma, dosed 58 weeks): 4.94 mg/kg/day | TD50 (males, site: skin, lesion: basal-cell adenoma + basal-cell carcinoma, dosed 58 weeks): 0.5 mg/kg/day | TD50 (males, site: skin, lesion: basal-cell adenoma, dosed 58 weeks): 0.534 mg/kg/day | TD50 (males, site: skin, lesion: basal-cell carcinoma, dosed 58 weeks): 8.85 mg/kg/day | TD50 (males, site: skin, lesion: keratoacanthoma, dosed 58 weeks): 4.58 mg/kg/day | TD50 (males, site: skin, lesion: sebaceous adenoma, dosed 58 weeks): 5.62 mg/kg/day | TD50 (males, site: skin, lesion: squamous-cell carcinoma + squamous-cell papilloma, dosed 58 weeks): 1.55 mg/kg/day | TD50 (males, site: skin, lesion: squamous-cell carcinoma, dosed 58 weeks): 2.8 mg/kg/day | TD50 (males, site: skin, lesion: squamous-cell papilloma, dosed 58 weeks): 3.28 mg/kg/day
